Reference: US20260193271A1, “PAN-KRAS INHIBITOR COMPOUND” (ADLAI NORTYE BIOPHARMA CO., LTD., priority 2022, published 2026)

Legend:
SW480 (G12V) = test: In vitro cell proliferation inhibition test (CellTiter-Glo), SW480; format: cell-based; settings: SW480 colon cell line, KRAS (p.G12V), 72 h co-incubation
Outline: (§1)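 Cells were seeded at 1000-5000/well by doubling time and cultured overnight at 37 °C, 5% CO2. They were then exposed for 72 h to 10-point, 3-fold compound dilutions (final top 10 μM), and viability was read by CellTiter-Glo luminescence. IC50 came from normalized signals fitted by four-parameter regression.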

AsPC-1 (G12D) = test: In vitro cell proliferation inhibition test (CellTiter-Glo), AsPC-1; format: cell-based; settings: KRAS (p.G12D), 72 h co-incubation
Outline: as §1

[1] = Homo sapiens, ASPC1, AsPC-1 pancreas cell line

| Structure (SMILES) | IC50 (SW480 (G12V); Homo sapiens) | IC50 (AsPC-1 (G12D); [1]) | IC50 (SW480 (G12V)) | IC50 (AsPC-1 (G12D); AsPC-1 pancreas cell line) |
| --- | --- | --- | --- | --- |
| CCn1c(-c2cc(-c3cnn(C4CCN(C)CC4)c3)cnc2[C@H](C)OC)c2c3cc(ccc31)-c1csc(n1)C[C@H](NC(=O)[C@H]1C[C@@H]1C)C(=O)N1CCC[C@H](N1)C(=O)OCC(C)(C)C2 (atropisomer, axis not shown) [Compound 63, (1S,2S)-N-((6^3S,4S,Z)-1^1-ethyl-1^2-(2-((S)-1-methoxyethyl)-5-(1-(1-methylpiperidin-4-yl)-1H-pyrazol-4-yl)pyridin-3-yl)-10,10-dimethyl-5,7-dioxo-6^1,6^2,6^3,6^4,6^5,6^6-hexahydro-1^1H-8-oxa-2(4,2)-thiazola-1(5,3)-indola-6(1,3)-pyridazinacycloundecaphane-4-yl)-2-methylcyclopropane-1-carboxamide] | 71 nM | 48 nM | – | – |
| CCn1c(-c2cc(-c3cnc(CN4CCOCC4)nc3)cnc2[C@H](C)OC)c2c3cc(ccc31)-c1csc(n1)C[C@H](NC(=O)[C@H]1C[C@@H]1C)C(=O)N1CCC[C@H](N1)C(=O)OCC(C)(C)C2 (atropisomer, axis not shown) [Compound 66, (1S,2S)-N-((6^3S,4S,Z)-1^1-ethyl-1^2-(2-((S)-1-methoxyethyl)-5-(2-(morpholinomethyl)pyrimidin-5-yl)pyridin-3-yl)-10,10-dimethyl-5,7-dioxo-6^1,6^2,6^3,6^4,6^5,6^6-hexahydro-1H-8-oxa-2(4,2)-thiazola-1(5,3)-indola-6(1,3)-pyridazinacycloundecaphane-4-yl)-2-methylcyclopropane-1-carboxamide] | 3.4 nM | 10 nM | – | – |
| CCn1c(-c2cc(-c3ccc4c(c3)CN(C)C4)cnc2C(C)OC)c2c3cc(ccc31)-c1csc(n1)CC(NC(=O)C1CC1C)C(=O)N1CCCC(N1)C(=O)OCC(C)(C)C2 [Compound 2′, (1S,2S)-N-((6^3S,4S,Z)-1^1-ethyl-1^2-(2-((S)-1-methoxyethyl)-5-(2-methylisoindolin-5-yl)pyridin-3-yl)-10,10-dimethyl-5,7-dioxo-6^1,6^2,6^3,6^4,6^5,6^6-hexahydro-1^1H-8-oxa-2(4,2)-thiazola-1(5,3)-indola-6(1,3)-pyridazinacycloundecaphane-4-yl)-2-methylcyclopropane-1-carboxamide] | – | – | 820 nM | 2500 nM |
| CCn1c(-c2cc(-c3cccc(CN4CCOCC4)n3)cnc2[C@H](C)OC)c2c3cc(ccc31)-c1csc(n1)C[C@H](NC(=O)C1C[C@@H]1C)C(=O)N1CCC[C@H](N1)C(=O)OCC(C)(C)C2 (stereo partly drawn) [Compound 13, (1S,2S)-N-((6^3S,4S,Z)-1^1-ethyl-1^2-(6′-((S)-1-methoxyethyl)-6-(morpholinomethyl)-[2,3′-bipyridin]-5′-yl)-10,10-dimethyl-5,7-dioxo-6^1,6^2,6^3,6^4,6^5,6^6-hexahydro-1^1H-8-oxa-2(4,2)-thiazola-1(5,3)-indola-6(1,3)-pyridazinacycloundecaphane-4-yl)-2-methylcyclopropane-1-carboxamide] | 2 nM | 2.5 nM | – | – |
| CCn1c(-c2cc(-c3ncc(CN4CCOCC4)cn3)cnc2[C@H](C)OC)c2c3cc(ccc31)-c1csc(n1)C[C@H](NC(=O)C1C[C@@H]1C)C(=O)N1CCC[C@H](N1)C(=O)OCC(C)(C)C2 (stereo partly drawn) [Compound 14, (1S,2S)-N-((6^3S,4S,Z)-1^1-ethyl-1^2-(2-((S)-1-methoxyethyl)-5-(5-(morpholinomethyl)pyrimidin-2-yl)pyridin-3-yl)-10,10-dimethyl-5,7-dioxo-6^1,6^2,6^3,6^4,6^5,6^6-hexahydro-1^1H-8-oxa-2(4,2)-thiazola-1(5,3)-indola-6(1,3)-pyridazinacycloundecaphane-4-yl)-2-methylcyclopropane-1-carboxamide] | 2.8 nM | 1.7 nM | – | – |
| CCn1c(-c2cc(-c3cc(CN4CCOCC4)on3)cnc2C(C)OC)c2c3cc(ccc31)-c1csc(n1)CC(NC(=O)C1CC1C)C(=O)N1CCCC(N1)C(=O)OCC(C)(C)C2 [Compound 22′, (1S,2S)-N-((6^3S,4S,Z)-1^1-ethyl-1^2-(2-((S)-1-methoxyethyl)-5-(5-(morpholinomethyl)isoxazol-3-yl)pyridin-3-yl)-10,10-dimethyl-5,7-dioxo-6^1,6^2,6^3,6^4,6^5,6^6-hexahydro-1^1H-8-oxa-2(4,2)-thiazola-1(5,3)-indola-6(1,3)-pyridazinacycloundecaphane-4-yl)-2-methylcyclopropane-1-carboxamide] | – | – | 161 nM | > 10000 nM |
| CCn1c(-c2cc(-c3cc(CNC)on3)cnc2C(C)OC)c2c3cc(ccc31)-c1csc(n1)CC(NC(=O)C1CC1C)C(=O)N1CCCC(N1)C(=O)OCC(C)(C)C2 [Compound 23′, (1S,2S)-N-((6^3S,4S,Z)-1^1-ethyl-1^2-(2-((S)-1-methoxyethyl)-5-(5-((methylamino)methyl)isoxazol-3-yl)pyridin-3-yl)-10,10-dimethyl-5,7-dioxo-6^1,6^2,6^3,6^4,6^5,6^6-hexahydro-1^1H-8-oxa-2(4,2)-thiazola-1(5,3)-indola-6(1,3)-pyridazinacycloundecaphane-4-yl)-2-methylcyclopropane-1-carboxamide] | – | – | 1340 nM | 2370 nM |
| CCn1c(-c2cc(-c3cc(C4CCCN4C)on3)cnc2C(C)OC)c2c3cc(ccc31)-c1csc(n1)CC(NC(=O)C1CC1C)C(=O)N1CCCC(N1)C(=O)OCC(C)(C)C2 [Compound 24′, (1S,2S)-N-((6^3S,4S,Z)-1^1-ethyl-1^2-(2-((S)-1-methoxyethyl)-5-(5-((R)-1-methylpyrrolidin-2-yl)isoxazol-3-yl)pyridin-3-yl)-10,10-dimethyl-5,7-dioxo-6^1,6^2,6^3,6^4,6^5,6^6-hexahydro-1^1H-8-oxa-2(4,2)-thiazola-1(5,3)-indola-6(1,3)-pyridazinacycloundecaphane-4-yl)-2-methylcyclopropane-1-carboxamide] | – | – | 3610 nM | > 10000 nM |
| CCn1c(-c2cc(-c3cc([C@@H]4CCCN4C)on3)cnc2[C@H](C)OC)c2c3cc(ccc31)-c1csc(n1)C[C@H](NC(=O)[C@H]1C[C@@H]1C)C(=O)N1CCC[C@H](N1)C(=O)OCC(C)(C)C2 [Compound 25′, (1S,2S)-N-((6^3S,4S,Z)-1^1-ethyl-1^2-(2-((S)-1-methoxyethyl)-5-(5-((S)-1-methylpyrrolidin-2-yl)isoxazol-3-yl)pyridin-3-yl)-10,10-dimethyl-5,7-dioxo-6^1,6^2,6^3,6^4,6^5,6^6-hexahydro-1^1H-8-oxa-2(4,2)-thiazola-1(5,3)-indola-6(1,3)-pyridazinacycloundecaphane-4-yl)-2-methylcyclopropane-1-carboxamide] | – | – | > 10000 nM | 3420 nM |
| CCn1c(-c2cc(-c3cc(C4CN(C)CCO4)on3)cnc2C(C)OC)c2c3cc(ccc31)-c1csc(n1)CC(NC(=O)C1C(C)C1C)C(=O)N1CCCC(N1)C(=O)OCC(C)(C)C2 [Compound 27′, (1r,2R,3S)-N-((6^3S,4S,Z)-1^1-ethyl-1^2-(2-((S)-1-methoxyethyl)-5-(5-((S)-4-methylmorpholin-2-yl)isoxazol-3-yl)pyridin-3-yl)-10,10-dimethyl-5,7-dioxo-6^1,6^2,6^3,6^4,6^5,6^6-hexahydro-1^1H-8-oxa-2(4,2)-thiazola-1(5,3)-indola-6(1,3)-pyridazinacycloundecaphane-4-yl)-2,3-dimethylcyclopropane-1-carboxamide] | – | – | 50 nM | 7.7 nM |
